Test results taken from article PMC11284788, “NN1213 – A Potent, Long-Acting, and Selective Analog of Human Amylin” (Journal of Medicinal Chemistry, 2024).
Numbered stars: 1 amine (or outer) side, 2 acyl side, 3 side chain; on linkers, the order of the positions; unused ones are H or OH. Bridge positions count the residues as written; N and C are the ends. Side chains are listed from the residue outwards. Peptide text beside a SMILES is read from it. * marks the point of attachment. C20 diacid = O=C(O)CCCCCCCCCCCCCCCCCCC(=O)*; γGlu = O=C(O)[C@H](CCC(=O)[*:2])N[*:1]

Assays:
hAMY3R [1] = target: T1, hAMY3R (Homo sapiens, UniProt O60896+P30988); test: scintillation proximity binding assay, hAMY3R membranes; design: expressed in transfected cells; host or cells: BHK tk-ts 13, transient co-transfection; membranes for the SPA, whole cells for the species-specific assays; settings: ratio of binding IC50 values
T1 sequence (P30988 25-474): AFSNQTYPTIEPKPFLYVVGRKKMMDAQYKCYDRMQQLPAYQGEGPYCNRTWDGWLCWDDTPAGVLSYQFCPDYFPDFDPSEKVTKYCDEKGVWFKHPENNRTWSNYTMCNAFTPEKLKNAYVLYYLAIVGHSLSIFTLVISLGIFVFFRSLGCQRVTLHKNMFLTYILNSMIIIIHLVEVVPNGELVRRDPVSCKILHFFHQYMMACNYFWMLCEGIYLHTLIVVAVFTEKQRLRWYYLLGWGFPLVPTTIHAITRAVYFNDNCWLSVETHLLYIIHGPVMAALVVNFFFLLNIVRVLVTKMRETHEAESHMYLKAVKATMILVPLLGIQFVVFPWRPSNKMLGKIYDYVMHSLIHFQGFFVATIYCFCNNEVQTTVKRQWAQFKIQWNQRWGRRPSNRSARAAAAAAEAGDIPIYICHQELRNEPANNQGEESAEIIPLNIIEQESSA
T1 sequence (O60896 24-148 partner): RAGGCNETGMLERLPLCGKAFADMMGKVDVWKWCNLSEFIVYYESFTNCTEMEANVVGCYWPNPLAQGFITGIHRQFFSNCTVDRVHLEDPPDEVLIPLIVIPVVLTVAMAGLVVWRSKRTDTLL

rAMY3R = target: T2, rAMY3R (Rattus norvegicus, UniProt P32214+Q9JJ73); test: scintillation proximity binding assay, rAMY3R membranes; design: expressed in transfected cells; host or cells: BHK tk-ts 13, transient co-transfection (FuGENE 6); settings: ratio of binding IC50 values
T2 sequence (P32214 25-479 isoform P32214-2 limits assumed): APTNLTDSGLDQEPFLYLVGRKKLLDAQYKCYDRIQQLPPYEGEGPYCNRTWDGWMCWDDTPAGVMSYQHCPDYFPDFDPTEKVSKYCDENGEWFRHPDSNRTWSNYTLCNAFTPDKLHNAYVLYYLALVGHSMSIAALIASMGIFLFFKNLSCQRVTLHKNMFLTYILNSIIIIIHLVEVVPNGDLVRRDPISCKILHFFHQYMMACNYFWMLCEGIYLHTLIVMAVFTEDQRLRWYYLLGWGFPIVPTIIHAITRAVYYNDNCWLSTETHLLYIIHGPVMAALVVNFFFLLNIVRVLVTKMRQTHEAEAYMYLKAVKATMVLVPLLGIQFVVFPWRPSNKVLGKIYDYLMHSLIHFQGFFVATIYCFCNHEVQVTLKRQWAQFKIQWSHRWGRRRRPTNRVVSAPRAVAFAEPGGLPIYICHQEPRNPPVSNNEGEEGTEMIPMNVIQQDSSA
T2 sequence (Q9JJ73 23-147 partner): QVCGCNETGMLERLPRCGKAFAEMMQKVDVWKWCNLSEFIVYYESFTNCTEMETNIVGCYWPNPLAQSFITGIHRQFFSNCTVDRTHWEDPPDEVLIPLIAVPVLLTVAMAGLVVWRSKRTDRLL

hAMY3R [2] = target: T1, hAMY3R; test: cAMP-responsive element luciferase reporter assay, human AMY3R; type: cell-based; design: expressed in transfected cells; settings: ratio of luciferase EC50 values

With `CC[C@H](C)[C@H](NC(=O)[C@H](C)NC(=O)CNC(=O)[C@H](Cc1ccccc1)NC(=O)[C@H](CC(N)=O)NC(=O)[C@@H]1CCCN1C(=O)[C@H](CO)NC(=O)[C@H](CO)NC(=O)[C@H](Cc1c[nH]cn1)NC(=O)[C@H](CCCNC(=N)N)NC(=O)[C@H](CC(C)C)NC(=O)[C@H](Cc1ccccc1)NC(=O)[C@H](CCC(=O)O)NC(=O)[C@H](C)NC(=O)[C@H](CC(C)C)NC(=O)[C@H](CCCNC(=N)N)NC(=O)[C@H](CCC(N)=O)NC(=O)[C@@H](NC(=O)[C@H](C)NC(=O)[C@@H]1CSSC[C@H](NC(=O)[C@@H](N)CCCCNC(=O)CC[C@H](NC(=O)CCCCCCCCCCCCCCCCCCC(=O)O)C(=O)O)C(=O)N[C@@H](CC(N)=O)C(=O)N[C@@H]([C@@H](C)O)C(=O)N[C@@H](C)C(=O)N[C@@H]([C@@H](C)O)C(=O)N1)[C@@H](C)O)C(=O)N1CCC[C@H]1C(=O)N[C@@H](CO)C(=O)N[C@@H](CO)C(=O)N[C@H](C(=O)N[C@@H](CC(N)=O)C(=O)N[C@H](C(=O)NCC(=O)N[C@@H](CO)C(=O)N[C@@H](CCCNC(=N)N)C(=O)N[C@H](C(=O)N[C@@H](Cc1ccc(O)cc1)C(N)=O)[C@@H](C)O)C(C)C)[C@@H](C)O` [Peptide 20] (H-K([γGlu-C20 diacid])CNTATCATQRLAEFLRHSSPNFGAIPSSTNVGSRTY-NH2; disulfide 2-7) the “ratio hCTR/hAMY3R” value (hAMY3R [1]) was 31, the “ratio rCTR/rAMY3R” value (rAMY3R) was 111 and the “ratio hCTR/hAMY3R” value (hAMY3R [2]) was 15.
